Test results: PubChem BioAssay AID2060504 (Molecular Pharmacology Branch, DTP, NCI, 2025)

Test system: 636577-100-R-J1-PDC complex spheroid viability
Assay: Anticancer human tumor 636577-100-R-J1-PDC patient-derived endometrial adenocarcinoma cell line growth inhibition [GQUAD]
Conditions: for IC50: curve of first compound; for viability, T/C: stronger effect = lower value
In short: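 Multi-cell-type spheroids of tumor cells with HUVEC and mesenchymal stem cells, treated with drug combinations. Concentrations descend in half-log steps from near clinical Cmax, or from 10 microM where Cmax is unknown; viability read-out.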

[1] = second compound 0.0316 µM, first compound 0.0316 µM
[2] = second compound 0.0316 µM, first compound 0.1 µM
[3] = second compound 0.0316 µM, first compound 0.316 µM
[4] = second compound 0.0316 µM, first compound 1 µM
[5] = second compound 0.0316 µM, first compound 3.16 µM
[6] = second compound 0.0316 µM, first compound 10 µM
[7] = second compound 0.1 µM, first compound 0.0316 µM
[8] = second compound 0.1 µM, first compound 0.1 µM
[9] = second compound 0.1 µM, first compound 0.316 µM
[10] = second compound 0.1 µM, first compound 1 µM
[11] = second compound 0.1 µM, first compound 3.16 µM
[12] = second compound 0.1 µM, first compound 10 µM
[13] = second compound 0.316 µM, first compound 0.0316 µM
[14] = second compound 0.316 µM, first compound 0.1 µM
[15] = second compound 0.316 µM, first compound 0.316 µM
[16] = second compound 0.316 µM, first compound 1 µM
[17] = second compound 0.316 µM, first compound 3.16 µM
[18] = second compound 0.316 µM, first compound 10 µM
[19] = second compound 1 µM, first compound 0.0316 µM
[20] = second compound 1 µM, first compound 0.1 µM
[21] = second compound 1 µM, first compound 0.316 µM
[22] = second compound 1 µM, first compound 1 µM
[23] = second compound 1 µM, first compound 3.16 µM
[24] = second compound 1 µM, first compound 10 µM
[25] = second compound 3.16 µM, first compound 0.0316 µM
[26] = second compound 3.16 µM, first compound 0.1 µM
[27] = second compound 3.16 µM, first compound 0.316 µM
[28] = second compound 3.16 µM, first compound 1 µM
[29] = second compound 3.16 µM, first compound 3.16 µM
[30] = second compound 3.16 µM, first compound 10 µM
[31] = second compound 10 µM, first compound 0.0316 µM
[32] = second compound 10 µM, first compound 0.1 µM
[33] = second compound 10 µM, first compound 0.316 µM
[34] = second compound 10 µM, first compound 1 µM
[35] = second compound 10 µM, first compound 3.16 µM
[36] = second compound 10 µM, first compound 10 µM
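Also: viability read after seven days of drug exposure.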
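For viability, T/C in this document: luminescence signal used as a proxy for viable cells; 100% = DMSO vehicle control wells.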

`C=CCn1c(=O)c2cnc(Nc3ccc(N4CCN(C)CC4)cc3)nc2n1-c1cccc(C(C)(C)O)n1` + Cc1[nH]c2ccc(F)cc2c1-c1nc2c3cccnc3c3ncccc3c2[nH]1 showed an IC50 (second compound 0.0316 µM) of 0.825 µM, an IC50 (second compound 0.1 µM) of 0.746 µM and an IC50 (second compound 0.316 µM) of 0.58 µM. For the same compound, the IC50 (second compound 1 µM) was 0.202 µM, the IC50 (second compound 3.16 µM) was under 0.0316 µM and the IC50 (second compound 10 µM) was under 0.0316 µM. The viability, T/C [1] was 113%, the viability, T/C [2] was 83.9% and the viability, T/C [3] was 94%. It also gave a viability, T/C [4] of 41%, a viability, T/C [5] of 16.9% and a viability, T/C [6] of 12.4%. The viability, T/C [7] was 103%, the viability, T/C [8] was 78% and the viability, T/C [9] was 78.4%. The viability, T/C [10] was 40.6%, the viability, T/C [11] was 19.6% and the viability, T/C [12] was 12.5%. It also gave a viability, T/C [13] of 83%, a viability, T/C [14] of 78.5% and a viability, T/C [15] of 65%. It also gave a viability, T/C [16] of 36.9%, a viability, T/C [17] of 17.4% and a viability, T/C [18] of 14%. It also gave a viability, T/C [19] of 83.9%, a viability, T/C [20] of 45.3% and a viability, T/C [21] of 58.1%. For the same compound, the viability, T/C [22] was 29.8%, the viability, T/C [23] was 16.1% and the viability, T/C [24] was 13.6%. For the same compound, the viability, T/C [25] was 25.6%, the viability, T/C [26] was 21.4% and the viability, T/C [27] was 23.6%. It also gave a viability, T/C [28] of 19.1%, a viability, T/C [29] of 17.5% and a viability, T/C [30] of 16.6%. For the same compound, the viability, T/C [31] was 35%, the viability, T/C [32] was 28.6% and the viability, T/C [33] was 29.3%. For the same compound, the viability, T/C [34] was 20.1%, the viability, T/C [35] was 20.9% and the viability, T/C [36] was 14.5%.
For `CC(C)(O)C1CCC(Nc2ccc3ncc(-c4cccc(C(F)(F)F)c4)n3n2)CC1` (stereo not drawn) + Cc1[nH]c2ccc(F)cc2c1-c1nc2c3cccnc3c3ncccc3c2[nH]1, the IC50 (second compound 0.0316 µM) was 1.09 µM, the IC50 (second compound 0.1 µM) was 0.981 µM and the IC50 (second compound 0.316 µM) was 1.77 µM. The IC50 (second compound 1 µM) was 1.88 µM, the IC50 (second compound 3.16 µM) was under 0.0316 µM and the IC50 (second compound 10 µM) was under 0.0316 µM. It also gave a viability, T/C [1] of 92.8%, a viability, T/C [2] of 75.9% and a viability, T/C [3] of 111%. It also gave a viability, T/C [4] of 51.3%, a viability, T/C [5] of 35.5% and a viability, T/C [6] of 32.2%. It also gave a viability, T/C [7] of 90.7%, a viability, T/C [8] of 79.1% and a viability, T/C [9] of 84.4%. It also gave a viability, T/C [10] of 49%, a viability, T/C [11] of 33.1% and a viability, T/C [12] of 26.2%. It also gave a viability, T/C [13] of 60.9%, a viability, T/C [14] of 54.6% and a viability, T/C [15] of 82.9%. It also gave a viability, T/C [16] of 62.5%, a viability, T/C [17] of 34.6% and a viability, T/C [18] of 39.9%. The viability, T/C [19] was 69%, the viability, T/C [20] was 78% and the viability, T/C [21] was 69.5%. For the same compound, the viability, T/C [22] was 69.8%, the viability, T/C [23] was 33.7% and the viability, T/C [24] was 23.5%. For the same compound, the viability, T/C [25] was 20.1%, the viability, T/C [26] was 28.1% and the viability, T/C [27] was 31.1%. For the same compound, the viability, T/C [28] was 26.1%, the viability, T/C [29] was 16.2% and the viability, T/C [30] was 13.1%. The viability, T/C [31] was 31.6%, the viability, T/C [32] was 34.1% and the viability, T/C [33] was 39%. It also gave a viability, T/C [34] of 37.8%, a viability, T/C [35] of 17.1% and a viability, T/C [36] of 15.1%.
Compound `Cc1[nH]c2ccccc2c1CCNCc1ccc(/C=C/C(=O)NO)cc1` + Cc1[nH]c2ccc(F)cc2c1-c1nc2c3cccnc3c3ncccc3c2[nH]1 has an IC50 (second compound 0.0316 µM) of 0.00382 µM, an IC50 (second compound 0.1 µM) of 0.00427 µM and an IC50 (second compound 0.316 µM) of 0.00257 µM. The IC50 (second compound 1 µM) was 0.00408 µM, the IC50 (second compound 3.16 µM) was under 0.000999 µM and the IC50 (second compound 10 µM) was under 0.000999 µM. It also gave a viability, T/C (second compound 0.0316 µM, first compound 0.000999 µM) of 85.4%, a viability, T/C (second compound 0.0316 µM, first compound 0.00316 µM) of 50.4% and a viability, T/C (second compound 0.0316 µM, first compound 0.00999 µM) of 37.9%. For the same compound, the viability, T/C [1] was 17.2%, the viability, T/C (second compound 0.0316 µM, first compound 0.0999 µM) was 8.47% and the viability, T/C [3] was 10.2%. The viability, T/C (second compound 0.1 µM, first compound 0.000999 µM) was 76.9%, the viability, T/C (second compound 0.1 µM, first compound 0.00316 µM) was 50.8% and the viability, T/C (second compound 0.1 µM, first compound 0.00999 µM) was 41.8%. For the same compound, the viability, T/C [7] was 14.9%, the viability, T/C (second compound 0.1 µM, first compound 0.0999 µM) was 7.94% and the viability, T/C [9] was 12.1%. It also gave a viability, T/C (second compound 0.316 µM, first compound 0.000999 µM) of 80.3%, a viability, T/C (second compound 0.316 µM, first compound 0.00316 µM) of 37.7% and a viability, T/C (second compound 0.316 µM, first compound 0.00999 µM) of 32.9%. For the same compound, the viability, T/C [13] was 16.5%, the viability, T/C (second compound 0.316 µM, first compound 0.0999 µM) was 7.47% and the viability, T/C [15] was 10.4%. For the same compound, the viability, T/C (second compound 1 µM, first compound 0.000999 µM) was 51.6%, the viability, T/C (second compound 1 µM, first compound 0.00316 µM) was 59.6% and the viability, T/C (second compound 1 µM, first compound 0.00999 µM) was 30.3%. The viability, T/C [19] was 15.5%, the viability, T/C (second compound 1 µM, first compound 0.0999 µM) was 9.36% and the viability, T/C [21] was 8.79%. The viability, T/C (second compound 3.16 µM, first compound 0.000999 µM) was 23.2%, the viability, T/C (second compound 3.16 µM, first compound 0.00316 µM) was 27.4% and the viability, T/C (second compound 3.16 µM, first compound 0.00999 µM) was 23.9%. The viability, T/C [25] was 17.2%, the viability, T/C (second compound 3.16 µM, first compound 0.0999 µM) was 9.73% and the viability, T/C [27] was 7.69%. The viability, T/C (second compound 10 µM, first compound 0.000999 µM) was 32.9%, the viability, T/C (second compound 10 µM, first compound 0.00316 µM) was 34% and the viability, T/C (second compound 10 µM, first compound 0.00999 µM) was 23.1%. It also gave a viability, T/C [31] of 13.5%, a viability, T/C (second compound 10 µM, first compound 0.0999 µM) of 9.1% and a viability, T/C [33] of 10.7%.
In the case of `O=C(NO)c1cnc(N2CCN(S(=O)(=O)c3ccc4ccccc4c3)CC2)nc1` + Cc1[nH]c2ccc(F)cc2c1-c1nc2c3cccnc3c3ncccc3c2[nH]1, the IC50 (second compound 0.0316 µM) is reported as 0.0512 µM, the IC50 (second compound 0.1 µM) is reported as 0.0577 µM and the IC50 (second compound 0.316 µM) is reported as 0.0476 µM. For the same compound, the IC50 (second compound 1 µM) was 0.0463 µM, the IC50 (second compound 3.16 µM) was under 0.0316 µM and the IC50 (second compound 10 µM) was under 0.0316 µM. It also gave a viability, T/C [1] of 69.7%, a viability, T/C [2] of 21.1% and a viability, T/C [3] of 11.5%. The viability, T/C [4] was 7.28%, the viability, T/C [5] was 0.23% and the viability, T/C [6] was 0.1%. For the same compound, the viability, T/C [7] was 68.2%, the viability, T/C [8] was 33.2% and the viability, T/C [9] was 15.2%. It also gave a viability, T/C [10] of 5.55%, a viability, T/C [11] of 0.5% and a viability, T/C [12] of 0.09%. For the same compound, the viability, T/C [13] was 60.2%, the viability, T/C [14] was 31.4% and the viability, T/C [15] was 17.2%. For the same compound, the viability, T/C [16] was 7.41%, the viability, T/C [17] was 1% and the viability, T/C [18] was 0.08%. The viability, T/C [19] was 60.2%, the viability, T/C [20] was 29% and the viability, T/C [21] was 16.6%. The viability, T/C [22] was 6.03%, the viability, T/C [23] was 1.47% and the viability, T/C [24] was 0.08%. It also gave a viability, T/C [25] of 25.8%, a viability, T/C [26] of 19.7% and a viability, T/C [27] of 17.1%. The viability, T/C [28] was 7.07%, the viability, T/C [29] was 2.05% and the viability, T/C [30] was 0.09%. For the same compound, the viability, T/C [31] was 29.5%, the viability, T/C [32] was 22.4% and the viability, T/C [33] was 14.3%. The viability, T/C [34] was 6.09%, the viability, T/C [35] was 2.61% and the viability, T/C [36] was 0.11%.
